According to US12414960B2, “Analogues of oleuropein and oleacein and uses thereof” (Attica Sciences Ltd., priority 2020, dated 2025):
“Also recorded” adds a separate entry of the source.

Experiments:
[1] = test system: pACLY (S455); assay: ELISA of pACLY (S455) / ACLY enzymatic activity in PANC-1 cells; format: cell-based, human; conditions: 5 μM
Experimental: ELISA assay was used to evaluate the effect of GS compounds on protein activity levels in PANC-1 cancer cells. PANC-1 cells were serum-starved overnight and then treated with rIGF1 (100 ng/mL) for 24 hours, with or without GS27 (5 μM). The levels of the following proteins were evaluated by ELISA assay: a) p70 S6 (T389) (cat no. 54164C, Cell Signaling); b) pAKT (S473), (cat no. 80895, Cell Signaling); c) pACLY (S455), (cat no. okag1672, Avivasysbio); d) pAMPK (T172) (cat no. 7959C, Cell Signaling) and e) p65/NFKB (S536), (cat no. 7173, Cell Signaling).
PANC-1 is a human pancreatic ductal adenocarcinoma cell line derived from the carcinoma of a person.
The molecular mechanism of action of GS27, a compound that has exerted potent anti-cancer activity in different cancer cell lines including pancreatic cancer cells, was investigated. Oleacein has been implicated to have anti-inflammatory and metabolic effects, thus the potential effects of GS27 in different metabolic and inflammatory pathways were evaluated. Specifically, the protein levels of p70 S6 (T389), pAKT (S473), pACLY (S455), pAMPK (T172) and p65/NFKB (S536) were evaluated by ELISA assay in PANC-1 pancreatic cancer cells treated with 5 μM GS27. GS27 reduced p70 S6 and AKT phosphorylation levels, while it increased AMPK phosphorylation.
The effects of different GS compounds on ACLY enzymatic activity were evaluated by ELISA assay in PANC-1 pancreatic cancer cells. […] This finding is unexpected, since GS21 has a very similar structure with GS27, with the only difference being the presence of an oxygen atom in ester GS21 instead of a sulfur atom in thioester GS27.

[2] = DPPH radical scavenging assay; format: biochemical; conditions: NS = not statistically significant
Experimental: The method of assessing the antioxidant capacity through the binding of the stable DPPH. radical was performed for the first time by Brand-Williams et al. in 1995 (Brand-William, W. et al., Lebensm Wiss Technol, 1995, 28: 25-30, “Use of a free radical method to evaluate antioxidant activity”). The method used herein is a variation of the original method and is one of the most characteristic and simple methods for the initial assessment of the antioxidant activity of antioxidant molecules or extracts rich in compounds with antioxidant properties.
The assessment of antioxidant capacity is based on the interaction of the tested molecules with the stable radical of 2,2-diphenyl-1-picrylydrazyl (DPPH). The DPPH. radical can be inactivated either by the addition of an electron or by a hydrogen atom. It is a stable organic nitrogen radical that is purple in color and absorbs at 517 nm. When a substance with antioxidant activity is added to the radical solution, then 2,2-diphenyl-1-picrylydrazyl (DPPH.) is reduced by the addition of a hydrogen atom (or electron) and converted to 2,2-diphenyl-1-picrylhydrazine (DPPH) which has a yellow color, resulting in reduction to the visual absorption (FIG. 2).
The effects of GS compounds on DPPH radical was evaluated as described previously (Spanou, C et al., Anticancer Research, 2007, 27: 3403-3410). Briefly, the assay was carried out in 1 mL of methanol containing 100 μM freshly made DPPH in methanol and the tested GS compound at different concentrations. The contents were vigorously mixed, incubated at room temperature in the dark for 20 minutes and the absorbance was read at 517 nm using a Hitachi U-1500 Spectrophotometer (San Jose, USA). In each experiment, the tested extract alone in methanol was used as blank and DPPH alone in methanol was used as control. […] The radical scavenging capacity (RSC) of the tested extracts was expressed as a percentage of DPPH elimination calculated according to the following equation: % RSC=[(absorbance of control−absorbance of GS compound)/absorbance of control]×100.

[3] = target: topoisomerase Type I; assay: Plasmid relaxation assay; format: biochemical; conditions: NS = not statistically significant
Excerpt: Topoisomerases are nuclear enzymes that play essential roles in DNA replication, transcription, chromosome segregation, and recombination. Type I topoisomerases (classified into three distinct subfamilies—Type IA, IB, and IC based on structural considerations) are enzymes which make single-stranded cuts in DNA. DNA topoisomerases are important targets of approved and experimental anti-cancer agents. The protocol described here are of assays used to assess the ability of GS compounds to inhibit topoisomerase Type I activity based on relaxation of supercoiled DNA.
Plasmid DNA is a circular double-stranded DNA molecule that is mainly found in bacteria and has the ability to self-replicate on its own. Bacteria may have one or more copies of plasmid DNA that help them survive adverse conditions, as they usually carry antibiotic resistance genes. Even with the help of plasmids being transferred from bacterium to bacterium, it is possible to transfer information that contributes to their survival.
When plasmid DNA runs in an electrophoresis gel it appears mainly in three configurations: (1) The supercoiled conformation, in which the plasmid is intact (without fractures), is its most compact form; (2) The open circular, relaxed conformation, to which it goes when single-stranded fractures are caused. This is caused either from enzymatic or other factors (e.g., free radicals) that have the ability to cause DNA breakage; (3) The linear configuration to which it goes when it has double-stranded fractures. These configurations run at different speeds in an electrophoresis gel. The smaller the configuration, the faster it penetrates the agarose pores. […]
The ability of GS compounds to inhibit topoisomerase Type I activity was assessed based on the relaxation of supercoiled DNA as previously described (Kouka, Paraskevi et al., Oxid Med Cell Longev. 2019, Article ID 1870965). […] Finally, the gels were exposed to UV, the MultiImage Light Cabinet (Alpha Innotech, San Leandro, CA, USA) was used to capture the gel photos, and the results were analyzed with the Alpha View suite. […]

Row | SMILES | ACLY enzymatic activity (ELISA) [1] | DPPH Radical Scavenging Assay IC50 [2] | Plasmid Relaxation Assay IC50 [3]
1 | C/C=C(/C=O)[C@@H](CC=O)CC(=O)OCCCCCCCCCCCCCCCC [GS26, (3S,4E)-4-formyl-3-(2-oxoethyl)-4-hexenoic acid hexadecyl ester] | did not show any effect |  | 
2 | C/C=C(/C=O)[C@@H](CC=O)CC(=O)SCCc1ccccc1 [GS27, S-phenethyl (3S,4E)-4-formyl-3-(2-oxoethyl)hex-4-enethioate] | dramatic effect on reducing; also recorded: substantially reducing |  | 
3 | C/C=C1/[C@H](OC2OC(CO)C(O)C(O)C2O)OC=C(C(=O)O)[C@H]1CC(=O)OCCc1ccc(O)c(O)c1 (stereo in doubt) [GS6, (2S,4S,E)-4-(2-(3,4-dihydroxyphenethoxy)-2-oxoethyl)-3-ethylidene-2{[(2R,3S,4R,5R,6S)-3,4,5-trihydroxy-6-(hydroxymethyl)tetrahydro-2H-pyran-2-yl]oxy}-3,4dihydro-2H-pyran-5-carboxylic acid] |  | 5.9 μg extract/mL | 5.94 μg extract/mL
4 | C/C=C1/[C@H](O[C@@H]2O[C@H](CO)[C@@H](O)[C@H](O)[C@H]2O)OC=C(C(=O)OC)[C@H]1CC(=O)OCCc1ccc(O)c(O)c1 [GS1, oleuropein] |  | 13.8 μg extract/mL | 9.91 μg extract/mL
5 | C/C=C(/C=O)[C@@H](CC=O)CC(=O)OCCCSC [GS28, (3S,4E)-4-formyl-3-(2-oxoethyl)-4-hexenoic acid 3-(methylthio)propyl ester] | did not show any effect |  | 
6 | C/C=C(/C=O)[C@@H](CC=O)CC(=O)OCCOc1ccccc1 [GS24, (3S,4E)-4-formyl-3-(2-oxoethyl)-4-hexenoic acid 2-phenoxyethyl ester] | small effect |  | 
7 | C/C=C(/C=O)[C@@H](CC=O)CC(=O)OCCc1ccc(O)c(O)c1 [GS17, (3S,4E)-4-formyl-3-(2-oxoethyl)-4-hexenoic acid 2-(3,4-dihydroxyphenyl)ethyl ester, reference compound] |  | 11.5 μg extract/mL | 9.5 μg extract/mL
